Results from patent US8486985B2, “Selective subtype alpha 2 adrenergic agents and methods for use thereof” (Allergan, Inc., priority 2008, dated 2013).
Read-outs that look alike come from different tables or passages of the source.

How the values were obtained:
[1] = molecular target: T1, alpha 2B receptor (Homo sapiens, UniProt P18089); test: RSAT (Receptor Selection and Amplification Technology) assay, alpha 2B; type: cell-based; conditions: for RSAT (rel eff) Alpha 2B: intrinsic activity: ratio of maximal effect to that of standard full agonist brimonidine
T1 construct: expressed in transfected cells; host or cells: NIH-3T3 cells
T1 sequence (P18089 1-450): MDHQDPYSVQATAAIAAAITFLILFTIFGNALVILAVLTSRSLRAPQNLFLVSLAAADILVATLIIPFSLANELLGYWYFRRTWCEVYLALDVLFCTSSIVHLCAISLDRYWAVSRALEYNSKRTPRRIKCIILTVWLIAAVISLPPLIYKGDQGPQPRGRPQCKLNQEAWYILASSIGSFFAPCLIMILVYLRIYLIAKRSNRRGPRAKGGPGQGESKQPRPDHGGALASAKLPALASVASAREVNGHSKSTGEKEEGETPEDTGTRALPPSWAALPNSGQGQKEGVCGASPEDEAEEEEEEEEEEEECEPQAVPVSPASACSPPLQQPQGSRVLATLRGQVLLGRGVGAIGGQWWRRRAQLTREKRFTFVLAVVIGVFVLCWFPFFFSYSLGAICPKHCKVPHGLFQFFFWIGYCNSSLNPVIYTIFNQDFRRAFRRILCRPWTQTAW
Description: (§1) 76, pp. 308-311 (incorporated herein by reference) and is also described below.
(§2) The RSAT assay measures a receptor-mediated loss of contact inhibition that results in selective proliferation of receptor-containing cells in a mixed population of confluent cells. The increase in cell number is assessed with an appropriate transfected marker gene such as β-galactosidase, the activity of which can be easily measured in a 96-well format. Receptors that activate the G protein, Gq, elicit this response. Alpha 2 receptors, which normally couple to Gi, activate the RSAT response when coexpressed with a hybrid Gq protein that has a Gi receptor recognition domain, called Gq/i5.
(§3) NIH-3T3 cells are plated at a density of 2×10^6 cells in 15 cm dishes and maintained in Dulbecco's modified Eagle's medium supplemented with 10% calf serum. One day later, cells are cotransfected by calcium phosphate precipitation with mammalian expression plasmids encoding p-SV-β-galactosidase (5-10 μg), receptor (1-2 μg) and G protein (1-2 μg). 40 μg salmon sperm DNA may also be included in the transfection mixture. Fresh media is added on the following day and 1-2 days later, cells are harvested and frozen in 50 assay aliquots. Cells are thawed and 100 μl added to 100 μL aliquots of various concentrations of drugs in triplicate in 96-well dishes. Incubations continue 72-96 hr at 37° C. After washing with phosphate-buffered saline, β-galactosidase enzyme activity is determined by adding 200 μL of the chromogenic substrate (consisting of 3.5 mM o-nitrophenyl-β-D-galactopyranoside and 0.5% nonidet P-40 in phosphate buffered saline), incubating overnight at 30° C. and measuring optical density at 420 nm. The absorbance is a measure of enzyme activity, which depends on cell number and reflects a receptor-mediated cell proliferation. The efficacy or intrinsic activity is calculated as a ratio of the maximal effect of the drug to the maximal effect of a standard full agonist for each receptor subtype. Brimonidine, the chemical structure of which is shown below, is used as the standard agonist for the alpha 2B and alpha 2C receptors.

[2] = molecular target: T2, alpha 2C receptor (Homo sapiens, UniProt P18825); test: RSAT (Receptor Selection and Amplification Technology) assay, alpha 2C; type: cell-based; conditions: for RSAT (rel eff) Alpha 2C: intrinsic activity: ratio of maximal effect to that of standard full agonist brimonidine
T2 construct: expressed in transfected cells; host or cells: NIH-3T3 cells
T2 sequence (P18825 1-462): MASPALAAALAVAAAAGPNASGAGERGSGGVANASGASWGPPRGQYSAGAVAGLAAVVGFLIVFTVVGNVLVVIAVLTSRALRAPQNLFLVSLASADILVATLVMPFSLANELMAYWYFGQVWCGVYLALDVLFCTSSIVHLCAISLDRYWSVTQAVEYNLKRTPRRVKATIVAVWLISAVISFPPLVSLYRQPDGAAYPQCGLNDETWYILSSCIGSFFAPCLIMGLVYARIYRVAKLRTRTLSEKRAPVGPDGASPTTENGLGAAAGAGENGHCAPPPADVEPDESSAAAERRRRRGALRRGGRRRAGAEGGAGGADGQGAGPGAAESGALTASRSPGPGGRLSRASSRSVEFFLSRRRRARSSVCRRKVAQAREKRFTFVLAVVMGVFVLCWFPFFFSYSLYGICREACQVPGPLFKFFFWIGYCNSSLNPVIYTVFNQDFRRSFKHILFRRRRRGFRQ
Description: as §1, §2, §3

EC50 ([1]; NIH-3T3 cells cotransfected with receptor, Gq/i5 and beta-galactosidase, read-out: RSAT EC50 (nM) Alpha 2B) [nM]	EC50 ([2]; NIH-3T3 cells cotransfected with receptor, Gq/i5 and beta-galactosidase, nd = not determinable (>10,000), read-out: RSAT EC50 (nM) Alpha 2C) [nM]	SMILES	EC50 [1] [nM]	RSAT (rel eff) Alpha 2B [1]	EC50 [2] [nM]	RSAT (rel eff) Alpha 2C [2]
		CCC(NC1=NCCN1)c1cccc(Cl)c1Cl (stereo not drawn) [Compound 3, N-[1-(2,3-dichloro-phenyl)-propyl]-4,5-dihydro-1H-imidazol-2-amine]	38	0.82	46	0.30
11	> 10000	Clc1cccc(C(CCc2ccccc2)NC2=NCCN2)c1Cl (stereo not drawn) [Compound 4, N-[1-(2,3-dichloro-phenyl)-3-phenyl-propyl]-4,5-dihydro-1H-imidazol-2-amine]		0.77		
		C[C@@H](NC1=NCCN1)c1cccc(Cl)c1Cl [Compound 1, N-[1-(2,3-dichloro-phenyl)-ethyl]-4,5-dihydro-1H-imidazol-2-amine]	31	0.68	41	0.35
		C[C@H](NC1=NCCN1)c1cccc(Cl)c1Cl [Compound 2, (+)-(S)—N-[1-(2,3-dichloro-phenyl)-ethyl]-4,5-dihydro-1H-imidazol-2-amine]	19	0.63	63	0.33
